The record followed here is ChEMBL document CHEMBL1201862, “PubChem BioAssay data set” (2004).

A short description of assay [1]: NIH-3T3 fibroblast cytotoxicity, dose response, cytotoxicity control, cell-based, fluorescence, Alamar Blue, secondary assay (AID 2327).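 Also: NIH-3T3 mouse fibroblasts cultured with fluconazole at 8 µg/mL.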 In kind it is functional. On the technique in general: Resazurin is reduced to fluorescent resorufin, in cell work by metabolically active cells.
Assay [2] in a line: fluconazole-exposed Candida albicans growth modulators – fluorescence, retest, confirmation (AID 2467). In kind it is functional, cell-based.
Assay [3] deals with T1, Corticotropin-releasing factor receptor 2/Corticotropin-releasing factor-binding protein (Homo sapiens, UniProt P24387+Q13324).
T1 sequence (Q13324 whole entry): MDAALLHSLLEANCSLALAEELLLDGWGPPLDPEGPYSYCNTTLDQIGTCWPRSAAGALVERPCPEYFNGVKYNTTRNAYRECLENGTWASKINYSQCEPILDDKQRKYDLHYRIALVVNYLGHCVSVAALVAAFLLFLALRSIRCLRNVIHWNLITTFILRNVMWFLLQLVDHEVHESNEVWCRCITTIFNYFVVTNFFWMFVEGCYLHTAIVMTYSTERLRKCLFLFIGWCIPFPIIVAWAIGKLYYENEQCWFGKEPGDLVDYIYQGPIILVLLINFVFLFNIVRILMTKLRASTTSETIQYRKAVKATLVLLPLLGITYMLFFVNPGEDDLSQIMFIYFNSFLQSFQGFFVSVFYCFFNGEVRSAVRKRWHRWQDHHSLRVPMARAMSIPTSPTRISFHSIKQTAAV
T1 sequence (P24387 whole entry): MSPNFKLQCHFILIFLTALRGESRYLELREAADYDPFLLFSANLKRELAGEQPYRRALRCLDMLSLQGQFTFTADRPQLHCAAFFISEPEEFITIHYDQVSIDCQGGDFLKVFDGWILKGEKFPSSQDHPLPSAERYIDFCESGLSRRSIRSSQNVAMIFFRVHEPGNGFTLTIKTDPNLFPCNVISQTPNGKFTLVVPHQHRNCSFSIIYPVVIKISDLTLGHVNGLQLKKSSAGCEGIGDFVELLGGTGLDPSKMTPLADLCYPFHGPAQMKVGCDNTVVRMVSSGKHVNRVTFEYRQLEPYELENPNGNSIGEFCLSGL
As to the kind of experiment: activators of CRF receptor 2 with binding protein – uHTS hits, confirmation (AID 602473). In kind it is functional. Particulars: read-out: EC50_Mean.

The target in assay [4] is T2, Zinc finger protein mex-5 (Caenorhabditis elegans, UniProt Q9XUB2).
T2 sequence (Q9XUB2 whole entry): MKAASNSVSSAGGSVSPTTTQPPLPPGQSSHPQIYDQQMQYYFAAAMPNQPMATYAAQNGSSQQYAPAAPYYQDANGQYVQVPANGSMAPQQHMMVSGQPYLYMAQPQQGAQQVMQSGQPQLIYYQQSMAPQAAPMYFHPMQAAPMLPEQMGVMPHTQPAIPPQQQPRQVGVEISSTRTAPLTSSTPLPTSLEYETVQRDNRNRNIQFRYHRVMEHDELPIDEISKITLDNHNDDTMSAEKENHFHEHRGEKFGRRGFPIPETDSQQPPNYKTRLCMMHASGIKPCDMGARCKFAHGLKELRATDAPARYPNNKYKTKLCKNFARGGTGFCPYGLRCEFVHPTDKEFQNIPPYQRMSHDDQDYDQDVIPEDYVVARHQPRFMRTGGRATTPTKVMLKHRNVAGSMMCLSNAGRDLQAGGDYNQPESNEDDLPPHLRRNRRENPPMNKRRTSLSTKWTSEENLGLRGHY
The experiment in a line: potency of MEX-5 RNA-binding blockers – biochemical, C. elegans, fluorescence polarization, dose response (AID 1960). For orientation: Fluorescence polarisation rises when a labelled molecule tumbles more slowly, as on binding a larger partner.

Assay [5] addresses T3, RNA-binding protein pos-1 (Caenorhabditis elegans, UniProt G5EF15).
T3 sequence (G5EF15 whole entry): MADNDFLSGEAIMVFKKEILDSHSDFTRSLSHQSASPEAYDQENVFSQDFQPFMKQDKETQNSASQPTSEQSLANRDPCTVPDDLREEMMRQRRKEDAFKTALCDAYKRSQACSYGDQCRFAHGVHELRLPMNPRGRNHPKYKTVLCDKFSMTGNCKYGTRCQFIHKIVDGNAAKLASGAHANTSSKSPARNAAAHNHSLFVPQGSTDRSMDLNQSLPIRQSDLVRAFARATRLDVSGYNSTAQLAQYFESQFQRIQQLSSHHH
As to the kind of experiment: disruptors of C. elegans POS-1 RNA interaction – biochemical, fluorescence polarization, dose response (AID 1964).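 Also: purified POS-1 fused to maltose binding protein made in E. coli; potency of compounds blocking POS-1 binding to fluorescent RNA.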

The target of assay [6] is T4, Replicative DNA helicase DnaB (Mycobacterium tuberculosis, UniProt P9WMR3).
T4 sequence (P9WMR3 whole entry): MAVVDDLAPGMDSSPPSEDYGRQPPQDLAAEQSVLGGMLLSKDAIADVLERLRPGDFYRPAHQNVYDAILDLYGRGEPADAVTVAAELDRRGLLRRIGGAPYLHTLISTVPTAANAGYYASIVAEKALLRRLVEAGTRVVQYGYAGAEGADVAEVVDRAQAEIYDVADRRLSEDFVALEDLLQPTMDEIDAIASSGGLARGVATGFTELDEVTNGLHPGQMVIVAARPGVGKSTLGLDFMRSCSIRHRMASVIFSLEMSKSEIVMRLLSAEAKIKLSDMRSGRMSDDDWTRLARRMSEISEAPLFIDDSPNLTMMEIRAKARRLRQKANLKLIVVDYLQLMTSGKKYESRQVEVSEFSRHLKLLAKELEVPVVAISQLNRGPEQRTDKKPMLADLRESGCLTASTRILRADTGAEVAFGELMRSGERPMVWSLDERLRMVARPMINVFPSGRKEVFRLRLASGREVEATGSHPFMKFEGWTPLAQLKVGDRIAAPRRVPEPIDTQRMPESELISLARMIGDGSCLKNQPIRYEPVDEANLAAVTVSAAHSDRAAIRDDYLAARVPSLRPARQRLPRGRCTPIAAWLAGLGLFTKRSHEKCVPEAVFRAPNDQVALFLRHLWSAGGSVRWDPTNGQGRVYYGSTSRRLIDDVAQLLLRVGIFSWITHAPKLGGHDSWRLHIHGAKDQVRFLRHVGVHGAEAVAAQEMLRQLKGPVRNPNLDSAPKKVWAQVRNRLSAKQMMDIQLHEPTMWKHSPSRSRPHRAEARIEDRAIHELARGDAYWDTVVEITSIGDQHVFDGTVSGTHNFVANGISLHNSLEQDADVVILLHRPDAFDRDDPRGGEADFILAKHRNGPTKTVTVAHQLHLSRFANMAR
The experiment in a line: DnaB intein splicing inhibitors, dose response, biochemical, cell-free fluorescence (AID 449749). Type of assay: functional.

In another assay the target is T5, Protein RecA (Mycobacterium tuberculosis, UniProt P9WHJ3).
T5 sequence (P9WHJ3 whole entry): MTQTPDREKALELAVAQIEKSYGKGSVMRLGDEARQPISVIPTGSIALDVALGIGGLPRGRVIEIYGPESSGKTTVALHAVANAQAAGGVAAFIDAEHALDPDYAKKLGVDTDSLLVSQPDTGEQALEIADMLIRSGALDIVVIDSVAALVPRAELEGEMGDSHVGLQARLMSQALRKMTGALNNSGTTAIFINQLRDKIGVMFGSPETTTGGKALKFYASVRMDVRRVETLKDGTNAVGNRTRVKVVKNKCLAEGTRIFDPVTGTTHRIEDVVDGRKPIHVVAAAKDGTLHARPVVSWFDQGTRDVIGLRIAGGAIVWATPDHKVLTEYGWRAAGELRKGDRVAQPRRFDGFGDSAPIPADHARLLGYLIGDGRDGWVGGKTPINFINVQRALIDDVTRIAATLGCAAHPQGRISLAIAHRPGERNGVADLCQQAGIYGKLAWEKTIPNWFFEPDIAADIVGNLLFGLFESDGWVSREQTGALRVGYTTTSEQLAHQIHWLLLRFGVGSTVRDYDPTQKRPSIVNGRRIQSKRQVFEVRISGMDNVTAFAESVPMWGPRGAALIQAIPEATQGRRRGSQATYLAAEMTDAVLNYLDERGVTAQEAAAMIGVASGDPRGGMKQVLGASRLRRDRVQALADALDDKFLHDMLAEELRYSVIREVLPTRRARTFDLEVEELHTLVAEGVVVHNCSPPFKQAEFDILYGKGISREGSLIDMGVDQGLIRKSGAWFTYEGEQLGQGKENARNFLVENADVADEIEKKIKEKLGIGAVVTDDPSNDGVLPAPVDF
As to the kind of experiment: Fluorescence Cell-Free Homogeneous Dose Retest to Identify Inhibitors of RecA-Intein Splicing Activity. [Related pubchem assays (depositor defined):AID2097, AID2223, AID489010, AID492950]. Type of assay: functional.

A further assay concerns the target Cytochrome P450 2C9 (Homo sapiens, UniProt P11712).
Assay [7] is described as follows: non-specific 3'UTR reporter inhibition in Clone20-Shn3RL – cell-based, Renilla luciferase, cherry-picked, counter-screen for Shn3 inhibitor project, dose response (AID 624133). In kind it is functional. Background: The purpose of a counterscreen is to sort out artefacts and off-target activity.
In assay [8] the target is T6, Heat shock factor protein 1 (Mus musculus, UniProt P38532).
T6 sequence (P38532 whole entry): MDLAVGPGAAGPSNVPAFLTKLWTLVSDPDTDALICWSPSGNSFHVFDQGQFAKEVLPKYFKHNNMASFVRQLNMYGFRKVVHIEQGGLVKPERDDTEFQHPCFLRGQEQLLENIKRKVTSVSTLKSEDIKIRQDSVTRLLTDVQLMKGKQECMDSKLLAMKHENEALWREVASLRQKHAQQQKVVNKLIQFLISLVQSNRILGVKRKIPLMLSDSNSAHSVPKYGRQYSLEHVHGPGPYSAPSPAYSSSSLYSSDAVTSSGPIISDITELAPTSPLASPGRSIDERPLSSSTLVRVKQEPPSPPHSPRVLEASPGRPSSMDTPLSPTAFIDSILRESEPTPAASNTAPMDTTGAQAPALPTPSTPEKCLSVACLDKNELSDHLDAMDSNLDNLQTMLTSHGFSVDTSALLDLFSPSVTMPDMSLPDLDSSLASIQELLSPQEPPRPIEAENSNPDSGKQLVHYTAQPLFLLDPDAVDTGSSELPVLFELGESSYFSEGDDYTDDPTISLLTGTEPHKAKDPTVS
As to the kind of experiment: decrease of HSF1-responsive luciferase luminescence – cell-based, NIH3T3, dose retest, confirmation (AID 2382).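 Also: NIH3T3 fibroblasts with HSF1-driven luciferase reporter stressed by proteasome inhibitor MG132; luminescence from HSF1-driven luciferase expression after 8 hours of MG132 stress.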 Type of assay: functional.

Assay [9] is described as follows: reduction of Shn3 3'UTR-driven luciferase in osteoblasts – cell-based, Clone20 osteoblasts, firefly luciferase, cherry-picked, dose response (AID 624132).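 Also: firefly luciferase luminescence from reporter carrying the Shn3 3'UTR in osteoblasts.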 Type of assay: functional.

Structures are written as SMILES. Active and inactive are the calls of the source. Rule as the data show it, for most assays here: actives have a measured EC50 and inactives only a lower limit.

Cytochrome P450 2C9, sequence (P11712 whole entry): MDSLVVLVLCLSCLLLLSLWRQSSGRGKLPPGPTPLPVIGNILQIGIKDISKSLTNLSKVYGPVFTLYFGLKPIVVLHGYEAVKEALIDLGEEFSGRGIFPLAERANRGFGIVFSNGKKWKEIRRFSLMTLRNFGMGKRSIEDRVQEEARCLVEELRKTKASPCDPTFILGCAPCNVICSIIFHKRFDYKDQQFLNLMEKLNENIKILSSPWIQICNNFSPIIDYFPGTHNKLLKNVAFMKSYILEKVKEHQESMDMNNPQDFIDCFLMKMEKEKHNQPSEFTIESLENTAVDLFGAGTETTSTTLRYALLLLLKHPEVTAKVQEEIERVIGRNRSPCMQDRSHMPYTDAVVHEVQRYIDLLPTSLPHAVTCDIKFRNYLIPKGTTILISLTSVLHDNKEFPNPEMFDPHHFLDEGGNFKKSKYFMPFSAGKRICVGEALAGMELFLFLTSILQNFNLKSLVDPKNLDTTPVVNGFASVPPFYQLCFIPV

`CC(C)c1nc(N2CCN(C(=O)c3ccco3)CC2)c2c3c(sc2n1)CCCC3`: the EC50 in assay [1] was > 150 µM (inactive); in assay [2], > 38 µM (not active).

For `COc1cccc(C2C(C(=O)c3ccc(C)cc3)=C(O)C(=O)N2Cc2ccco2)c1` (stereo unspecified), the EC50 in assay [1] was > 160 µM (inconclusive); in assay [2], 3.1 µM (active).

`COc1ccccc1NC(=O)c1sc2nc(Cc3ccccc3)cc(C(F)(F)F)c2c1N`: the figures for the EC50 in assay [3], in assay [4] and in assay [5] were 6.15 µM (active), 16.2 µM (active) and 9.55 µM (inconclusive), respectively.

Take `Cc1c(-c2nn(C)c(=O)c3ccccc23)oc2ccc(F)cc2c1=O`: the AC50 (as a rule, the concentration at which the activity in the assay is half-maximal) in assay [6] was 3.86 µM (active). The EC50 on Protein RecA was 2.51 µM (active).

Take `CC(C)(C)NC(=O)NC(=O)CN1CCCc2ccccc21`: the EC50 in [1] was > 150 µM (inactive); in [2], > 38 µM (not active).

With `CCCCC1=CC2=C(c3ccco3)C(=O)C(C)(OC(=O)c3ccc(OC)cc3)C(=O)C2=CN1C1CCCC1` (stereo unspecified), the EC50 in [4] was 14.3 µM (active); in assay [5] it was 16 µM (active).

As for `CC(C)OC(=O)C(C#N)c1nc2ccccc2nc1N1CCCC1` (stereo unspecified), the EC50 in assay [4] and in assay [5] was > 300 µM (not active) throughout.

As to `COc1ccc(C2C(C#N)=C(N)OC3=C2C(=O)CC(C)(C)C3)cc1OC` (stereo unspecified), the EC50 in assay [4] and in assay [5] was > 300 µM (not active) each time.

Regarding `CC(=O)Nc1ccc(N/C=C/C(=O)c2ccc(C)o2)cc1`, the EC50 in [4] and in assay [5] was > 300 µM (not active) throughout.

Take `Cc1ccccc1OCC(=O)Nc1ccc2c(c1)C(=O)c1ccccc1C2=O`: the results for the EC50 in assay [4] and in assay [5] were > 300 µM (not active) and 36.1 µM (active), respectively.

Regarding `O=C(c1ccc(Br)s1)N1CCN(c2ccccn2)CC1`, the EC50 in [4] and in [5] was > 300 µM (not active) each time.

With `COc1cccc(C(C(=O)NC2CCCC2)N(C(=O)c2ccco2)c2ccc(-n3cnnn3)c(C)c2)c1OC` (stereo unspecified), the EC50 in assay [1] is > 150 µM (inconclusive); in assay [2], > 38 µM (not active).

`Cc1ccccc1C(C(=O)NC1CCCC1)N(C(=O)Cc1cccs1)c1ccc2c(c1)OCCO2` (stereo unspecified): the AC50 at Cytochrome P450 2C9 is 0.891 µM (inconclusive).

In the case of `COc1ccc2c3c([nH]c2c1)C1CC2C(CC(O)C(OC)C2C(=O)O)CN1CC3` (stereo unspecified), the EC50 in [4] and in assay [5] was > 300 µM (not active) in each case.

Consider `CC(C)(c1ccccc1)c1ccc(OCC2CO2)cc1` (stereo unspecified), for which, in assay [6], the AC50 was 10 µM (active). Also, at Protein RecA, the EC50 is 11.9 µM (active).

Consider `Cc1cc2oc(=O)c(CC(=O)NCCCO)c(C)c2c2occ(C(C)(C)C)c12`, for which the EC50 in assay [4] and in assay [5] was > 300 µM (not active) in each case.

With `CN1CCN(C(=O)c2cnn(-c3ccccc3)c2NC(=O)c2ccccc2)CC1`, the EC50 in [1] was > 150 µM (inactive); in assay [2] it was > 38 µM (not active).

Regarding `CN(C)N1C(N)=C(C#N)C(c2cccnc2)C2=C1CC(C)(C)CC2=O` (stereo unspecified), the AC50 at Cytochrome P450 2C9 was 0.0224 µM (inconclusive).

As to `O=C(NCc1ccccc1)C(c1ccncc1)N(C(=O)c1csnn1)C1CC1` (stereo unspecified), the AC50 on Cytochrome P450 2C9 was 1.78 µM (inconclusive).

Regarding `Cc1ccc(N/N=C2\COC(C)(C)CC2=O)cc1`, the values for the EC50 in assay [1] and in assay [2] were > 160 µM (inactive) and > 38 µM (not active), respectively.

For the compound `COCCN1Cc2cccc(C(=O)Nc3ccc4c(c3)OCCO4)c2C1=O`, the AC50 in [7] is 19.1 µM (active); in [9], 27.1 µM (active). Besides, the EC50 in [8] is 11.6 µM (active).
